Test [1] has as its system CC mismatched DNA (ITC) (DNA, mismatch bulge abasic) GCGCCGTCGTCCATGTG/CACATGCACGACGGCGC
Put plainly: ITC. (Isothermal titration calorimetry measures the heat released or taken up as one component is titrated into another.)

Test [2] relates to hairpin DNA oligomer with a CC mismatch (DNA, mismatch bulge abasic) GGCAGGCATGGCTTTTTGCCATCCCTGCC
Put plainly: emission titration.

Test [3] relates to matched DNA (ITC) (DNA, duplex) GCGCCGTCGTCCATGTG/CACATGGACGACGGCGC
The experiment in a line: ITC.

The subject of test [4] is hairpin matched DNA (DNA, hairpin) GGCAGGCATGGCTTTTTGCCATGCCTGCC
The experiment in a line: emission titration.

In test [5] the test system is DNA without an abasic site (melting temperature experiment) (DNA, duplex) GACCAGCTTATCATCCCTAGATAAGCG/CGCTTATCTAGGGATGATAAGCTGGTC
The experiment in a line: melting temperature. Conditions: Tm stated not affected.

Test [6] has as its system normal (matched) 27-mer dsDNA (DNA, duplex) GACCAGCTTATCATCCCTAGATAAGCG/CGCTTATCTAGGGATGATAAGCTGGTC
Put plainly: emission titration. Conditions: 50 mM NaCl; 2 mM Tris, pH 7.5; 5 μM 1c; 4.7-fold emission increase.

Test [7] has as its system matched 17-mer dsDNA (DNA, duplex) GCGCCGTCGTCCATGTG/CACATGGACGACGGCGC
Put plainly: emission titration. Conditions: 50 mM NaCl; 2 mM Tris, pH 7.5; 2.8-fold emission increase.

Test [8] deals with 27-mer dsDNA with CC mismatch (DNA, mismatch bulge abasic) GACCAGCTTATCATCCCTAGATAAGCG/CGCTTATCTAGGCATGATAAGCTGGTC
Put plainly: emission titration. Particulars: 50 mM NaCl; 2 mM Tris, pH 7.5; 5 μM 1c; comparison DNA of abasic titration.

The subject of test [9] is self-complementary CC mismatched DNA 5′-C1G2G3A4C5T6C7C8G9-3′ (DNA, mismatch bulge abasic) CGGACTCCG
The experiment in a line: 1H NMR, NOESY, TOCSY titration. Particulars: 20 mM NaCl, 50 mM sodium phosphate; D2O, pH 6.1, 10 °C; shifts at A4 and C5, mismatched site.

In test [10] the test system is 27-mer abasic dsDNA AP_A (DNA, mismatch bulge abasic, abasic at 13 of strand 2) GACCAGCTTATCATACCTAGATAAGCG/CGCTTATCTAGGNATGATAAGCTGGTC
The experiment in a line: emission titration. Particulars: 50 mM NaCl; 2 mM Tris, pH 7.5; 5 μM 1c; 14.8-fold emission increase.

For test [11], the system named is 27-mer abasic dsDNA AP_T (DNA, mismatch bulge abasic, abasic at 13 of strand 2) GACCAGCTTATCATTCCTAGATAAGCG/CGCTTATCTAGGNATGATAAGCTGGTC
The experiment in a line: emission titration. Conditions: 50 mM NaCl; 2 mM Tris, pH 7.5; 5 μM 1c; 21.1-fold emission increase.

For test [12], the system named is 27-mer abasic dsDNA AP_C (DNA, mismatch bulge abasic, abasic at 13 of strand 2) GACCAGCTTATCATCCCTAGATAAGCG/CGCTTATCTAGGNATGATAAGCTGGTC
Put plainly: emission titration. Conditions: 50 mM NaCl; 2 mM Tris, pH 7.5; 5 μM 1c; 32.2-fold emission increase.

Test [13] deals with 27-mer abasic dsDNA AP_G (DNA, mismatch bulge abasic, abasic at 13 of strand 2) GACCAGCTTATCATGCCTAGATAAGCG/CGCTTATCTAGGNATGATAAGCTGGTC
Put plainly: emission titration. Particulars: 50 mM NaCl; 2 mM Tris, pH 7.5; 5 μM 1c; 14.4-fold emission increase.

Test [14] relates to CC mismatched 17-mer dsDNA (DNA, mismatch bulge abasic) GCGCCGTCGTCCATGTG/CACATGCACGACGGCGC
Put plainly: emission titration. Particulars: 50 mM NaCl; 2 mM Tris, pH 7.5; 27.5-fold emission increase.

The mark [15] stands for this setting: 50 mM NaCl, 2 mM Tris, pH 7.5, 0.1 mM complex titrated with 0.75 mM DNA.

With `C1CCC(P(CP(C2CCCCC2)C2CCCCC2)C2CCCCC2)CC1.[Pt+2].[Pt+2].[c-]1ccccc1-c1cccc(-c2ccccn2)n1.[c-]1ccccc1-c1cccc(-c2ccccn2)n1`, the Kd – broadly, a measure of binding affinity in units of concentration – in test [1] (setting [15]) turned out to be 7.0 ± 2.1 µM. Further, the binding result in test [2] (50 mM NaCl, 2 mM Tris, pH 7.5, 5 μM 2, 50-fold emission increase at 0.5 equivalents) is “yes”; in [3] (50 mM NaCl, 2 mM Tris, pH 7.5, 0.1 mM complex titrated with 0.75 mM DNA, Kd stated negligible), “no”; in test [4] (50 mM NaCl, 2 mM Tris, pH 7.5, 5 μM 2, 8.2-fold emission increase at 0.5 equivalents) it was “weak”; in test [5] it was “no”.

In the case of `CCCCN1[C]N(Cc2ccccc2)C=C1.[Pt+2].[c-]1ccccc1-c1cccc(-c2ccccn2)n1`, the binding result was “weak” in [6]; “weak” in [7]; “yes” in test [8]; “yes” in test [9]; “yes” in test [10]; “yes” in test [11]. Also, the binding entry in [2] (50 mM NaCl, 2 mM Tris, pH 7.5, 5 μM 1c, 26.4-fold emission increase at 1 equivalent) is listed as “yes”; in [12], “yes”; in [4] (50 mM NaCl, 2 mM Tris, pH 7.5, 5 μM 1c, 2.6-fold emission increase at 1 equivalent), “weak”; in test [13], “yes”; in test [14], “yes”. In [1] (setting [15]), this compound returned a dissociation constant (Kd) of 51.5 ± 8.0 µM.

As to `CC[n+]1c(-c2ccccc2)c2cc(N)ccc2c2ccc(N)cc21`, the Kd is 1.32 ± 0.24 µM in test [1] (Na+ 50 mM (Tris 2 mM buffer)) and 1.60 ± 0.28 µM in test [3] (Na+ 50 mM (Tris 2 mM buffer)). Further, the binding entry in [2] (12.7-fold emission increase) and in test [4] (14.1-fold emission increase) was “yes” in each case.

`CN1[C]N(C)C=C1.[Pt+2].[c-]1ccccc1-c1cccc(-c2ccccn2)n1`: the Kd in test [1] (setting [15]) stood at 66.2 ± 15.7 µM; in [3] (setting [15]), 56.4 ± 13.6 µM. Moreover, the binding entry in [2] (8.5-fold emission increase) and in test [4] (7.1-fold emission increase) was “yes” in each case.

Values taken from publication PMC4757794 (2016).
